Assay results: publication PMC5899833, “Population pharmacokinetics/pharmacodynamics of micafungin against Candida species in obese, critically ill, and morbidly obese critically ill patients” (Critical Care, 2018)
Like-named read-outs stand apart in the source and are kept apart here. Starred links: 1 amine or outer side, 2 acyl side, 3 side chain; linkers in the order of their positions; H or OH if unused. Positions of bridges follow the written chain, without caps; N, C: chain ends. Non-standard residues stand in square brackets, D forms with d. Residues, ends and D or L forms follow the SMILES beside them. *: point of attachment. hTyr(3S-OH,4S-OH,3'-OSO3H) = N[C@H](C(=O)O)[C@H](O)[C@@H](O)c1ccc(O)c(OS(=O)(=O)O)c1; Orn(4R-OH,5R-OH) = O=C([C@H](C[C@@H](O)[C@@H](O)N[*:3])N[*:1])[*:2]; Pro(3S-OH,4S-Me) = C[C@H]1CN[C@H](C(=O)O)[C@H]1O; X1 = CCCCCOc1ccc(-c2cc(-c3ccc(C(=O)*)cc3)no2)cc1; Gln(3R-OH) = NC(=O)C[C@@H](O)[C@H](N)C(=O)O; Hyp = O=C(O)[C@@H]1C[C@@H](O)CN1

Assay: Population pharmacokinetic model of total plasma micafungin in patients
Assay type: in vivo, human
Settings: 31 patients; for clearance: human
Method: A pharmacokinetic study was carried out in patients under micafungin empirical or directed treatment for invasive candidiasis. The population consisted of 11 morbidly obese critically ill adult patients (from the Hospital Universitario La Paz, Madrid, Spain), 10 nonobese critically ill patients, and 10 obese noncritically ill patients (from the Hospital del Mar, Barcelona, Spain). Patients admitted to ICUs were those considered to be critically ill. The study protocol was approved by the Ethics Committee of the Hospital La Paz (Madrid, Spain) and the Hospital del Mar (Barcelona, Spain). Written informed consent was obtained from patients (or relatives if the patient was unable to provide due to their critical situation) before blood sampling.
Demographic and clinical data prior to initiation of antifungal treatment were collected. Severity (Simplified Acute Physiology Score (SAPS) II), Sequential Organ Failure Assessment (SOFA) score, and risk for invasive candidiasis (Candida score) (except for patients with microbiologically documented infections) were calculated. Patients received dosage regimens of once-daily 100 mg or 150 mg micafungin (Astellas Pharma S.A., Spain) diluted in 100 ml isotonic saline solution that was intravenously infused over 60 min at the discretion of the treating physician (following the prescribing information and hospital treatment guidelines). On day 3, blood samples were collected at baseline (predose) and after 1, 3, 5, 8, 18, and 24 h. Additional blood samples at day 0 and day 7 were collected when feasible.
Total micafungin concentrations in plasma were measured by a validated ultra-high-performance liquid chromatography (UHPLC)-tandem mass spectrometry (MS/MS) method, from 0.2 to 30 μg/ml, on a Shimadzu Nexera 2 UHPLC system coupled to a Shimadzu 8030+ triple quadruple mass spectrometer (Shimadzu, Kyoto, Japan). Clinical samples were assayed alongside plasma calibrators and quality controls and met batch acceptance criteria.
To describe total micafungin concentrations, one- and two-compartment models were developed with the nonparametric adaptive grid algorithm within the freely available Pmetrics software package for R (Los Angeles, CA, USA). Elimination from the central compartment, and intercompartmental distribution into the peripheral compartment (two-compartment model), were modeled as first-order processes. The discrimination between different models resulted from the comparison of the −2 log-likelihood (−2LL). A p value of < 0.05 was considered statistically significant.
Age, gender, body weight, body mass index (BMI), Acute Physiology and Chronic Health Evaluation (APACHE) II, serum creatinine concentration, measured creatinine clearance, Cockroft-Gault estimated creatinine clearance, and serum albumin concentration were evaluated as covariates. Covariate selection was performed using a stepwise linear regression from R on all covariates and Bayesian posterior parameters. Potential covariates were separately entered into the model and statistically tested by use of the –2LL values.
Goodness-of-fit was assessed by linear regression, with an observed-predicted plot, coefficients of determination, and LL values. Predictive performance evaluation was based on mean error of prediction (bias) and mean bias-adjusted squared error of prediction (imprecision) of the population and individual prediction models. The internal validity of the population pharmacokinetic model was assessed by the bootstrap resampling method (n = 1000) and normalized prediction distribution errors (NPDE). Using a visual predictive check method, parameters obtained from the bootstrap method were plotted with the observed concentrations. NPDE plots were checked for normal distribution characteristics and trends in data errors. […]

[1] = final two-compartment covariate population PK model, 100 or 150 mg once daily iv
[2] = final two-compartment covariate population PK model, 100 or 150 mg once daily iv, SD

CCCCCOc1ccc(-c2cc(-c3ccc(C(=O)N[C@H]4C[C@@H](O)[C@@H](O)NC(=O)[C@@H]5[C@@H](O)[C@@H](C)CN5C(=O)[C@H]([C@H](O)CC(N)=O)NC(=O)[C@H]([C@H](O)[C@@H](O)c5ccc(O)c(OS(=O)(=O)O)c5)NC(=O)[C@@H]5C[C@@H](O)CN5C(=O)[C@H]([C@@H](C)O)NC4=O)cc3)no2)cc1 [micafungin] (X1-[Orn(4R-OH,5R-OH)]T[Hyp][hTyr(3S-OH,4S-OH,3'-OSO3H)][Gln(3R-OH)][Pro(3S-OH,4S-Me)]; lactam 1-C)
Central volume, median [1]: 16.34 L
kcp, median [1]: 0.26 h⁻¹
kpc, median [1]: 0.14 h⁻¹
Central volume, mean ± SD [2]: 16.34 ± 5.87 L
kcp (rate constant central to peripheral compartment), mean ± SD [2]: 0.38 ± 0.37 h⁻¹
kpc (rate constant peripheral to central compartment), mean ± SD [2]: 0.32 ± 0.31 h⁻¹
clearance (plasma, iv, final two-compartment covariate population PK model, 100 or 150 mg once daily iv, read-out: Clearance, median (converted)): 12.2 mL/min
clearance (final two-compartment covariate population PK model (weight, age on CL), 100 or 150 mg once daily iv over 60 min, 242 total plasma concentrations, UHPLC-MS/MS, SD, read-out: Clearance, mean ± SD (converted)): 13.3 mL/min
